In patent US7638306B2, “Process of increasing cellular production of biologically active compounds” (Fermalogic, Inc., priority 2003, dated 2009):
Counter-ions that a name gives are not always drawn.

Key:
[1] = system: wild type A. erythreum; experiment: growth inhibition of wild type A. erythreum by kanamycin; format: cell-based, Aeromicrobium erythreum
[2] = system: A. erythreum mutants containing the aph1 gene; settings: aphI (aph1) gene from Tn903 expressed in A. erythreum
Source text: E. coli library of A. erythreum genomic DNA. The plasmid library was constructed in the A. erythreum integration vector pFL2082, a pUC19-derived vector containing the aphI gene from Tn903. […] Several different vector preparations were dephosphorylated with different concentrations of CIAP or SAP in order to obtain the highest ratio of white to blue colonies after ligation. […] To generate a library that represented in excess of 5-fold coverage of the chromosome (estimated A. erythreum genome size somewhere between 4-8 Mb, representing about 4,000-8,000 coding sequences), 100,000 white colonies were harvested into 25 pools. This large number of colonies was chosen based on the assumption that some genes will be disproportionately represented over others after selection in E. coli. The colonies were split among 25 pools (ca. 4,000 colonies/pool) to increase randomness. To determine the insert size of random plasmid isolates a total of 65 white colonies were analyzed by restriction analysis of their plasmid DNA. […] This library was designated A. erythreum genomic library or library 1.
To generate a gene replacement library we developed a rapid, simple visual screen that took advantage of the Kn^r phenotype of single crossover mutants and the Kn^s phenotype of gene replacement mutants. […]

| Compound | kanamycin concentration to which A. erythreum is sensitive (growth inhibited) [1] [µg/mL] | kanamycin concentration up to which resistance is conferred with good growth [2] [µg/mL] |
| --- | --- | --- |
| NC[C@H]1O[C@H](O[C@H]2[C@H](O)[C@@H](O[C@H]3O[C@H](CO)[C@@H](O)[C@H](N)[C@H]3O)[C@H](N)C[C@@H]2N)[C@H](O)[C@@H](O)[C@@H]1O [Kanamycin sulfate] | ≥ 5 |  |
| NC[C@H]1O[C@H](O[C@H]2[C@H](O)[C@@H](O[C@H]3O[C@H](CO)[C@@H](O)[C@H](N)[C@H]3O)[C@H](N)C[C@@H]2N)[C@H](O)[C@@H](O)[C@@H]1O [kanamycin] | ≥ 2 | 10 to 15 |
